Test results: publication PMC3441526, “KCN1, a Novel Synthetic Sulfonamide Anticancer Agent: In Vitro and In Vivo Anti-Pancreatic Cancer Activities and Preclinical Pharmacology” (PLoS ONE, 2012)
Read-outs that look alike come from different tables or passages of the source.

Experiments:
BxPC3 cells = experiment: MTT cell survival assay; type: cell-based; conditions: Homo sapiens, BXPC-3
Experimental: (§1) The effect of the test compound on human pancreatic cancer cell viability, expressed as the percentage of cell survival, was determined using the MTT assay [45]–[47]. Cells were grown in 96-well plates at 4–5×10^3 cells per well and exposed to different concentrations of the test compound (0, 1, 5, 12.5, 25, 50 or 100 µM). After incubation for different times, 10 µL of the MTT solution (5 mg/mL; Sigma; St. Louis, MO) were added into each well. The plates were incubated for 2–4 hr at 37°C. The supernatant was then removed and the formazan crystals were dissolved with 100 µL of DMSO. The absorbance at 570 nm was recorded using an OPTImax microplate reader (Molecular Devices; Sunnyvale, CA). The cell survival percentages were calculated by dividing the mean optical density (OD) of compound-containing wells by that of DMSO-containing control wells. Three separate experiments were accomplished to determine the IC50 values.

HPAC cells = experiment: MTT cell survival assay; type: cell-based; conditions: Homo sapiens, 72 h
Experimental: as §1

Mia Paca-2 cells = experiment: MTT cell survival assay; type: cell-based; conditions: Homo sapiens
Experimental: as §1

Panc-1 cells = experiment: MTT cell survival assay; type: cell-based; conditions: Homo sapiens
Experimental: as §1

[1] = Pharmacokinetic study in mice; type: in vivo, CD-1 mice; conditions: for dose recovered as parental KCN1 from urine: first 24 hr
Experimental: Female CD-1 and nude mice were administered 35 mg/kg body weight of KCN1 as either a single intravenous injection via a tail vein or via an intraperitoneal injection. At selected time points after dosing, groups of three mice/time point were subjected to a retro-orbital bleed. The blood was collected into heparinized tubes, and plasma was separated by centrifugation. Tissues (brain, skeletal muscle, kidneys, liver, spleen, and heart) were collected by necropsy. Urine and feces were collected on ice for 24 h from mice housed in metabolic cages (n = 3/study). The collection containers and cages were washed twice with 0.9% saline solution, and each urine collection and each wash was analyzed separately, then values were added together for each mouse to determine the total KCN1 present in urine during the collection period. Pharmacokinetic values were derived using Phoenix WinNonlin Version 6.0 (Mountain View, CA).
An HPLC protocol was developed to detect KCN1 in different matrices (plasma, urine or tissue homogenates) using an Agilent 1120 instrument. KCN1 was separated on a Zorbax SB-C18 (5 µm, 150 × 4.6 mm) analytical column with a Zorbax Reliance Cartridge Guard Column (SB-C18), and the eluate was monitored by UV at 254 nm. The mobile phase was composed of “A” (methanol +0.1% Et3N)-“B” (ddH2O+0.1% Et3N) (80∶20, v/v). Prior to application, the mobile phase was filtered and degassed using a Millipore glass filter system with a nylon membrane (0.2 µm). The peaks for KCN1 were used to establish standard curves and for quantitative analysis of samples. Quantification of the compound was achieved by determination of the peak area at the retention time of approximately 4.4 minutes.
Plasma (100 µL) was mixed with 200 µL of methanol, vortexed, and centrifuged to remove precipitated proteins. The supernatant was evaporated to dryness under a stream of air. The residue was dissolved in 100 µL of the mobile phase, and 10 µL was injected onto the HPLC system for analysis. Weighed tissues were homogenized in two to five volumes of PBS (based on the weight of the tissue samples), and portions of the homogenates were processed in the same manner as the plasma samples.

[2] = CD-1 mice, 35 mg/kg, either route

SMILES: COc1ccc(S(=O)(=O)N(Cc2ccc3c(c2)C=CC(C)(C)O3)c2ccccc2)cc1OC [KCN1, 3,4-dimethoxy-N-[(2,2-dimethyl-2H-chromen-6-yl)methyl]-N-phenylbenzenesulfonamide]
- inhibition at 100 µM (BxPC3 cells; BxPC3, 100 µM, 72 h, read-out: inhibition of cell growth): 81%
- IC50 (BxPC3 cells; BxPC3, 72 h, MTT, read-out: Cytotoxicity: IC50): 14.62 ± 0.1 µM
- inhibition at 100 µM (HPAC cells; 100 µM, read-out: inhibition of cell growth): 83%
- IC50 (HPAC cells; MTT, read-out: Cytotoxicity: IC50): 17.91 ± 0.12 µM
- inhibition at 100 µM (Mia Paca-2 cells; Mia Paca-2, 100 µM, 72 h, read-out: inhibition of cell growth): 61%
- IC50 (Mia Paca-2 cells; Mia Paca-2, 72 h, MTT, read-out: Cytotoxicity: IC50): 69.9 ± 2.12 µM
- inhibition at 100 µM (Panc-1 cells; Panc-1, 100 µM, 72 h, read-out: inhibition of cell growth): 53%
- IC50 (Panc-1 cells; Panc-1, 72 h, MTT, read-out: Cytotoxicity: IC50): 100 ± 2.35 µM
- dose recovered as parental KCN1 from urine ([1]; CD-1 mice, 35 mg/kg I.P.): less than 0.5%
- dose recovered as parental KCN1 from urine ([1]; CD-1 mice, 35 mg/kg intravenously): less than 1%
- detection in brain [1, 2]: could not be detected after 6 h
- time detectable in heart, lungs, liver, spleen, kidneys and skeletal muscle [1, 2]: at least 24 h
- time plasma concentration still detectable ([1]; CD-1 mice, I.P. 35 mg/kg): ≥ 24 h
- time plasma concentration still detectable ([1]; CD-1 mice, I.V. 35 mg/kg): at least 6 h
- Tmax ([1]; female, mouse, plasma, ip, CD-1 mice, I.P. 35 mg/kg, read-out: time of maximum plasma level (converted)): 0.5 h
- concentration at 6 h ([1]; female, mouse, plasma, iv, CD-1 mice, I.V. 35 mg/kg, 6 h after dosing): < 300 ng/mL
- concentration at 5 min ([1]; female, mouse, plasma, iv, CD-1 mice, bolus I.V. 35 mg/kg, 5 minutes): 9980 ng/mL
- half-life ([1]; female, mouse, Brain, CD-1, IP 35 mg/kg): 3.13 h
- Tmax ([1]; female, mouse, Brain, CD-1, IP 35 mg/kg, read-out: Tmax): 1 h
- half-life ([1]; female, mouse, Brain, CD-1, IV 35 mg/kg): 0.53 h
- Tmax ([1]; female, mouse, Brain, CD-1, IV 35 mg/kg, read-out: Tmax): 0.08 h
- half-life ([1]; female, mouse, Heart, CD-1, IP 35 mg/kg): 2.19 h
- Tmax ([1]; female, mouse, Heart, CD-1, IP 35 mg/kg, read-out: Tmax): 0.17 h
- half-life ([1]; female, mouse, Heart, CD-1, IV 35 mg/kg): 22.1 h
- Tmax ([1]; female, mouse, Heart, CD-1, IV 35 mg/kg, read-out: Tmax): 0.08 h
- half-life ([1]; female, mouse, Kidneys, CD-1, IP 35 mg/kg): 2.5 h
- Tmax ([1]; female, mouse, Kidneys, CD-1, IP 35 mg/kg, read-out: Tmax): 0.08 h
- half-life ([1]; female, mouse, Kidneys, CD-1, IV 35 mg/kg): 18.8 h
- Tmax ([1]; female, mouse, Kidneys, CD-1, IV 35 mg/kg, read-out: Tmax): 0.08 h
- half-life ([1]; female, mouse, Liver, CD-1, IP 35 mg/kg): 3.5 h
- Tmax ([1]; female, mouse, Liver, CD-1, IP 35 mg/kg, read-out: Tmax): 4 h
- half-life ([1]; female, mouse, Liver, CD-1, IV 35 mg/kg): 1.15 h
- Tmax ([1]; female, mouse, Liver, CD-1, IV 35 mg/kg, read-out: Tmax): 0.08 h
- half-life ([1]; female, mouse, Lungs, CD-1, IP 35 mg/kg): 2.27 h
- Tmax ([1]; female, mouse, Lungs, CD-1, IP 35 mg/kg, read-out: Tmax): 0.25 h
- half-life ([1]; female, mouse, Lungs, CD-1, IV 35 mg/kg): 23.3 h
- Tmax ([1]; female, mouse, Lungs, CD-1, IV 35 mg/kg, read-out: Tmax): 2 h
- half-life ([1]; female, mouse, Muscle, CD-1, IP 35 mg/kg): 1.86 h
- Tmax ([1]; female, mouse, Muscle, CD-1, IP 35 mg/kg, read-out: Tmax): 0.17 h
- half-life ([1]; female, mouse, Muscle, CD-1, IV 35 mg/kg): 1.52 h
- Tmax ([1]; female, mouse, Muscle, CD-1, IV 35 mg/kg, read-out: Tmax): 0.08 h
- half-life ([1]; female, mouse, Plasma, CD-1, IP 35 mg/kg): 7.35 h
- half-life ([1]; female, mouse, Plasma, CD-1, IV 35 mg/kg): 0.16 h
- half-life ([1]; female, mouse, Spleen, CD-1, IP 35 mg/kg): 2.35 h
- Tmax ([1]; female, mouse, Spleen, CD-1, IP 35 mg/kg, read-out: Tmax): 2 h
- half-life ([1]; female, mouse, Spleen, CD-1, IV 35 mg/kg): 0.46 h
- Tmax ([1]; female, mouse, Spleen, CD-1, IV 35 mg/kg, read-out: Tmax): 0.08 h
